target: T1, BA/F3-FLT3-ITD + D835Y (Homo sapiens, UniProt P36888, D835Y, cells depend on it, form not given); test: Engineered BA/F3 cell growth assay, FLT3 ITD/D835Y; type: cell-based, murine; details: 3 d growth
T1 sequence (P36888 with tags, fused parts or gaps INS600HVDFREYEYD/D835Y): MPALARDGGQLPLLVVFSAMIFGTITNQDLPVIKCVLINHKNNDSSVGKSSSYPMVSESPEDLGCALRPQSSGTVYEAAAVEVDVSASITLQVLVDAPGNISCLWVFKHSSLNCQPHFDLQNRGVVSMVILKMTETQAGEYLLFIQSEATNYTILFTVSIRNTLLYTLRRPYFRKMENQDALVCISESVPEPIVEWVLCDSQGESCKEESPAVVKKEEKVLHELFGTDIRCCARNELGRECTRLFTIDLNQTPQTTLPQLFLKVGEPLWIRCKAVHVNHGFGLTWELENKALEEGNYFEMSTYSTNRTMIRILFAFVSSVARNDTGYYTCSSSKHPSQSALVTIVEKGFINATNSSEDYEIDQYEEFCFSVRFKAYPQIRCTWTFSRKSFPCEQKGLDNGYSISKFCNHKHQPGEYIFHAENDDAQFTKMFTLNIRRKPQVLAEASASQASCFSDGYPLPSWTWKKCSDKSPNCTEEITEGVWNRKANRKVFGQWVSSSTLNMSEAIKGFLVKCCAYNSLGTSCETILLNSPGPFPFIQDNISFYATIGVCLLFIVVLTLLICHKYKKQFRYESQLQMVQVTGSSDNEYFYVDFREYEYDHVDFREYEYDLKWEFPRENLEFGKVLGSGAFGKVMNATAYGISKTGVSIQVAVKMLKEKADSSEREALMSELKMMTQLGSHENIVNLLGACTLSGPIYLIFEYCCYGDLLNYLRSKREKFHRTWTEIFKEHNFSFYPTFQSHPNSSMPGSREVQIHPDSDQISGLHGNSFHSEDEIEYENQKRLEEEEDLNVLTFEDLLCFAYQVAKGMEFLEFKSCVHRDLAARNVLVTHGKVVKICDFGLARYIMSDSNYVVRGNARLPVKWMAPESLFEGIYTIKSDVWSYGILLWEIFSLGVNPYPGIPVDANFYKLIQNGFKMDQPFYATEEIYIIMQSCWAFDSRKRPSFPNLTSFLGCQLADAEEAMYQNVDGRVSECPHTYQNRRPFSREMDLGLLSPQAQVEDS
Summary of the method: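 IC50 derived from CellTiter-Glo ATP luminescence after 3 days at 37 °C, 5% CO2, over eight 1:3 dilutions from 1 μM (0.2% DMSO final). Cells: IL-3-independent murine Ba/F3 expressing full-length FLT3 ITD/D835Y, 1×10^4 per well.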

GI50, 0.0001 to 10 µM:
O=C(Cc1ccc(-c2cnc(Nc3cnn(C(F)F)c3)nc2)cc1)Nc1cncc(C(F)(F)F)c1 [Compound P-0209, 2-[4-[2-[[1-(difluoromethyl)pyrazol-4-yl]amino]pyrimidin-5-yl]phenyl]-N-[5-(trifluoromethyl)-3-pyridyl]acetamide]
Cc1ncc(NC(=O)Cc2ccc(-c3cnc(Nc4cnn(C(F)F)c4)nc3)cc2)cc1C(F)(F)F [Compound P-0210, 2-[4-[2-[[1-(difluoromethyl)pyrazol-4-yl]amino]pyrimidin-5-yl]phenyl]-N-[6-methyl-5-(trifluoromethyl)-3-pyridyl]acetamide]
COc1ncc(NC(=O)Cc2ccc(-c3cnc(Nc4cnn(C(F)F)c4)nc3)cc2)cc1C(F)(F)F [Compound P-0211, 2-[4-[2-[[1-(difluoromethyl)pyrazol-4-yl]amino]pyrimidin-5-yl]phenyl]-N-[6-methoxy-5-(trifluoromethyl)-3-pyridyl]acetamide]
COc1ncc(NC(=O)Cc2ccc(-c3cnc4[nH]nc(OC)c4c3)cc2)cc1C(F)(F)F [Compound P-0212, 2-[4-(3-methoxy-1H-pyrazolo[3,4-b]pyridin-5-yl)phenyl]-N-[6-methoxy-5-(trifluoromethyl)-3-pyridyl]acetamide]
CCOc1n[nH]c2ncc(-c3ccc(CC(=O)Nc4cnc(OC)c(C(F)(F)F)c4)cc3)cc12 [Compound P-0213, 2-(4-(3-ethoxy-1H-pyrazolo[3,4-b]pyridin-5-yl)phenyl)-N-(6-methoxy-5-(trifluoromethyl)pyridin-3-yl)acetamide]
COc1ncc(NC(=O)Cc2ccc(-c3cnc4[nH]c(C#CC(C)(C)O)cc4c3)cc2)cc1C(F)(F)F [Compound P-0214, 2-(4-(2-(3-hydroxy-3-methylbut-1-yn-1-yl)-1H-pyrrolo[2,3-b]pyridin-5-yl)phenyl)-N-(6-methoxy-5-(trifluoromethyl)pyridin-3-yl)acetamide]
COc1ncc(NC(=O)Cc2ccc(-c3cnc4[nH]nc(NC(=O)C(F)(F)F)c4c3)cc2)cc1C(F)(F)F [Compound P-0215, 2,2,2-trifluoro-N-[5-[4-[2-[[6-methoxy-5-(trifluoromethyl)-3-pyridyl]amino]-2-oxo-ethyl]phenyl]-1H-pyrazolo[3,4-b]pyridin-3-yl]acetamide]
COc1ncc(NC(=O)Cc2ccc(-c3cnc4[nH]nc(N)c4c3)cc2)cc1C(F)(F)F [Compound P-0216, 2-(4-(3-amino-1H-pyrazolo[3,4-b]pyridin-5-yl)phenyl)-N-(6-methoxy-5-(trifluoromethyl)pyridin-3-yl)acetamide]
CCOc1n[nH]c2ncc(-c3ccc(CC(=O)Nc4cnc(C)c(C(F)(F)F)c4)cc3)cc12 [Compound P-0217, 2-[4-(3-ethoxy-1H-pyrazolo[3,4-b]pyridin-5-yl)phenyl]-N-[6-methyl-5-(trifluoromethyl)-3-pyridyl]acetamide]
COc1n[nH]c2ncc(-c3ccc(CC(=O)Nc4cnc(C)c(C(F)(F)F)c4)cc3)cc12 [Compound P-0218, 2-[4-(3-methoxy-1H-pyrazolo[3,4-b]pyridin-5-yl)phenyl]-N-[6-methyl-5-(trifluoromethyl)-3-pyridyl]acetamide]
COc1ncc(NC(=O)Cc2ccc(-c3cnc4[nH]c(C#CC(C)(C)C)cc4c3)cc2)cc1C(F)(F)F [Compound P-0219, 2-[4-[2-(3,3-dimethylbut-1-ynyl)-1H-pyrrolo[2,3-b]pyridin-5-yl]phenyl]-N-[6-methoxy-5-(trifluoromethyl)-3-pyridyl]acetamide]
Cc1ncc(NC(=O)Cc2ccc(-c3cnc4[nH]c(C#CC(C)(C)O)cc4c3)cc2)cc1C(F)(F)F [Compound P-0220, 2-[4-[2-(3-hydroxy-3-methyl-but-1-ynyl)-1H-pyrrolo[2,3-b]pyridin-5-yl]phenyl]-N-[6-methyl-5-(trifluoromethyl)-3-pyridyl]acetamide]
COc1ncc(NC(=O)Cc2ccc(-c3cnc(Nc4cn[nH]c4C)nc3)cc2)cc1C(F)(F)F [Compound P-0221, N-[6-methoxy-5-(trifluoromethyl)-3-pyridyl]-2-[4-[2-[(5-methyl-1H-pyrazol-4-yl)amino]pyrimidin-5-yl]phenyl]acetamide]
COCCn1cc(Nc2ncc(-c3ccc(CC(=O)Nc4cc(C(F)(F)F)ccn4)cc3)cn2)cn1 [Compound P-0222, 2-[4-[2-[[1-(2-methoxyethyl)pyrazol-4-yl]amino]pyrimidin-5-yl]phenyl]-N-[4-(trifluoromethyl)-2-pyridyl]acetamide]
COc1ncc(NC(=O)Cc2ccc(-c3cnc4[nH]c(C#Cc5cncn5C)cc4c3)cc2)cc1C(F)(F)F [Compound P-0227, N-[6-methoxy-5-(trifluoromethyl)-3-pyridyl]-2-[4-[2-[2-(3-methylimidazol-4-yl)ethynyl]-1H-pyrrolo[2,3-b]pyridin-5-yl]phenyl]acetamide]
Cc1nn(C)cc1Nc1ncc(-c2ccc(CC(=O)Nc3cnc(C)c(C(F)(F)F)c3)cc2)cn1 [Compound P-0228, 2-[4-[2-[(1,3-dimethylpyrazol-4-yl)amino]pyrimidin-5-yl]phenyl]-N-[6-methyl-5-(trifluoromethyl)-3-pyridyl]acetamide]
Cc1ncc(NC(=O)Cc2ccc(-c3cnc(Nc4cnn(C)c4C)nc3)cc2)cc1C(F)(F)F [Compound P-0229, 2-[4-[2-[(1,5-dimethylpyrazol-4-yl)amino]pyrimidin-5-yl]phenyl]-N-[6-methyl-5-(trifluoromethyl)-3-pyridyl]acetamide]
COc1ncc(NC(=O)Cc2ccc(-c3cnc4[nH]nc(Cl)c4c3)cc2)cc1C(F)(F)F [Compound P-0230, 2-[4-(3-chloro-1H-pyrazolo[3,4-b]pyridin-5-yl)phenyl]-N-[6-methoxy-5-(trifluoromethyl)-3-pyridyl]acetamide]
O=C(Cc1ccc(-c2cnc(Nc3cnn(C4CC4)c3)nc2)cc1)Nc1cncc(C(F)(F)F)c1 [Compound P-0231, 2-[4-[2-[(1-cyclopropylpyrazol-4-yl)amino]pyrimidin-5-yl]phenyl]-N-[5-(trifluoromethyl)-3-pyridyl]acetamide]
Cc1ncc(NC(=O)Cc2ccc(-c3cnc(Nc4cnn(C5CC5)c4)nc3)cc2)cc1C(F)(F)F [Compound P-0232, 2-[4-[2-[(1-cyclopropylpyrazol-4-yl)amino]pyrimidin-5-yl]phenyl]-N-[6-methyl-5-(trifluoromethyl)-3-pyridyl]acetamide]
O=C(Cc1ccc(-c2cnc(Nc3cnn(C4CC4)c3)nc2)cc1)Nc1cnc(Cl)c(C(F)(F)F)c1 [Compound P-0233, N-[6-chloro-5-(trifluoromethyl)-3-pyridyl]-2-[4-[2-[(1-cyclopropylpyrazol-4-yl)amino]pyrimidin-5-yl]phenyl]acetamide]
COc1ncc(NC(=O)Cc2ccc(-c3cnc(Nc4cnn(C5CC5)c4)nc3)cc2)cc1C(F)(F)F [Compound P-0234, 2-[4-[2-[(1-cyclopropylpyrazol-4-yl)amino]pyrimidin-5-yl]phenyl]-N-[6-methoxy-5-(trifluoromethyl)-3-pyridyl]acetamide]
